Type in all cases: cell-based, human
In experiment [1] the test system is SNAP-25. Kind of experiment: Total SNAP-25 levels in ANCL iNs (quantitative immunoblotting). The settings on record: 72 h, compared to vehicle only control, FIG. 7B. As to the method: (§1) ANCL patient-derived fibroblasts were treated with 200 μM of L1 or Dfx, or vehicle (0.1% DMSO=Control) for 72 h, before measuring the UV-Vis absorbance spectra of immunoprecipitated CSPα eluted by trypsinization (solid lines). Spectra were re-read after 10 min of 0.1 N HCl treatment (dashed lines). The experiments shown in FIGS. 7B-7I, were conducted using ANCL fibroblasts converted to iNs using BAM+ND1 technique. […] Quantitative immunoblotting was used to measure levels of oligomerized and fully palmitoylated CSPα as well as total SNAP-25. Oligo=oligomers; Palm=palmitoylated. […] The interaction of CSPα with SNAP-25 in ANCL iNs was measured by immunoprecipitating SNAP-25 followed by quantitative immunoblotting of co-immunoprecipitated CSPα (normalized to SNAP-25 IP). Note that mainly CSPα monomers and not oligomers were detected bound to SNAP-25. Control=control sham IP without IgG. […] Turnover of SNAP-25 was determined by cycloheximide chase, while maintaining the iron-chelators or vehicle in the medium. […] In the experiments shown in FIGS. 7E-7G, ANCL iNs treated with L1, Dfx, or vehicle for 56 d and analyzed. […] The levels of lipofuscin were determined by ELISA. In the experiments shown in FIGS. 7H-7I 56 day old untreated ANCL iNs were treated with L1, Dfx, or vehicle, and analyzed. […]
For orientation: A western blot detects proteins with antibodies after separation by electrophoresis.

The test system of experiment [2] is SNAP-25. Kind of experiment: SNAP-25 turnover in ANCL iNs by cycloheximide chase. Particulars: 72 h pretreatment, cycloheximide chase in presence of chelator, FIG. 7D. As to the method: as §1
The test system of a further experiment is ANCL iNs. Kind of experiment: Lipofuscin autofluorescence in ANCL iNs. Particulars: ANCL iNs treated for 56 d from iN conversion (prevention); compared to control; FIG. 7E. As to the method:
as §1, with “SNAP-25.” for “SNAP-25. Control=control sham IP without IgG.”
(§2) Effect of iron chelators on the accumulation of lipofuscin was monitored by ELISA for lipofuscin or based on lipofuscin autofluorescence. […]

The next experiment has as its system ATP5G. Kind of experiment: ATP5G accumulation in ANCL iNs (quantitative immunoblotting). The settings on record: for accumulation of ATP5G: ANCL iNs treated for 56 d (prevention), FIG. 7F; for ATP5G levels: added to ANCL iNs after 56 days of lipofuscin accumulation, followed 3 weeks (treatment), compared to control, FIG. 7H. As to the method:
ANCL patient-derived fibroblasts were treated with 200 μM of L1 or Dfx, or vehicle (0.1% DMSO=Control) for 72 h, before measuring the UV-Vis absorbance spectra of immunoprecipitated CSPα eluted by trypsinization (solid lines). Spectra were re-read after 10 min of 0.1 N HCl treatment (dashed lines). The experiments shown in FIGS. 7B-7I, were conducted using ANCL fibroblasts converted to iNs using BAM+ND1 technique. […] Quantitative immunoblotting was used to measure levels of oligomerized and fully palmitoylated CSPα as well as total SNAP-25. Oligo=oligomers; Palm=palmitoylated. […] The interaction of CSPα with SNAP-25 in ANCL iNs was measured by immunoprecipitating SNAP-25 followed by quantitative immunoblotting of co-immunoprecipitated CSPα (normalized to SNAP-25 IP). Note that mainly CSPα monomers and not oligomers were detected bound to SNAP-25. Control=control sham IP without IgG. […] Turnover of SNAP-25 was determined by cycloheximide chase, while maintaining the iron-chelators or vehicle in the medium. […] In the experiments shown in FIGS. 7E-7G, ANCL iNs treated with L1, Dfx, or vehicle for 56 d and analyzed. […] The levels of lipofuscin were determined by ELISA. In the experiments shown in FIGS. 7H-7I 56 day old untreated ANCL iNs were treated with L1, Dfx, or vehicle, and analyzed. […] Data are from FIG. 7A representative of n=4, FIG. 7B n=4, FIG. 7C n=4, FIG. 7D n=7, FIG. 7F n=4, FIG. 7G n=4, FIG. 7H n=6, FIG. 7I n=3. In FIGS. 7B-7C and FIGS. 7F-7G *P<0.05; **P<0.01; ****P<0.0001 by two-tailed Student's t-test. #P<0.05 by Mann-Whitney-Wilcoxon U test. In FIG. 7D-7C and FIGS. 7H-7I **P<0.01; ***P<0.001; ****P<0.0001 by two-way ANOVA; ##P<0.01; ###P<0.001; ####P<0.0001 by Tukey's multiple comparisons test.
For SDS-PAGE, 10-15% Laemmli gels (10.3% T and 3.3% C) were used to separate proteins on Bio-Rad apparati. Proteins were transferred onto nitrocellulose (pore-size=[…]; GE Healthcare) and blocked with 5% w/v fat-free dry milk in tris buffered saline, pH 7.5 supplemented with 0.1% Tween 20 (TBS-T). Immunoblotting was performed by incubating the blocked membranes with primary antibodies in blocking buffer for 8-16 hours. Following 5 washes with TBS-Tween 20 (0.1%). Blots were incubated with secondary antibodies (goat anti-rabbit conjugated to IRDye […] or 800CW; LI-COR) at 1/5000 in blocking buffer for 1-3 hours. Immunoblots were washed 5× with TBS-T and dried, then scanned on Odyssey CLx (LI-COR) and quantified using Image-Studio software (LI-COR).
For ATPSG immunoblots, following the transfer, nitrocellulose membranes were dried and fixed for 15 min at room temperature in 0.2% glutaraldehyde in PBS. […]
as §2

Experimental findings from patent US12083105B2, “Compositions and methods for treating adult-onset neuronal ceroid lipofuscinosis (Kufs disease)” (CORNELL UNIVERSITY, priority 2020, dated 2024) are described below.

On to `CC(=O)N(O)CCCCCNC(=O)CCC(=O)N(O)CCCCCNC(=O)CCC(=O)N(O)CCCCCN` [Dfx, N′-[5-(Acetyl-hydroxy-amino)pentyl]-N-[5-[3-(5-aminopentyl-hydroxy-carbamoyl)propanoylamino]pentyl]-N-hydroxy-butane diamide], for which the SNAP-25 levels result in the experiment on SNAP-25 [1] is recorded as “augmented”. The “turnover of SNAP-25” value in the experiment with SNAP-25 [2] is listed as “decreased turnover”. In the experiment on ANCL iNs, the lipofuscin autofluorescence result is listed as “reduced”. In the experiment on ATP5G, the “accumulation of ATP5G” value was “trend toward reduced accumulation” and the ATP5G levels entry is on record as “diminished down to similar levels as observed in the prevention experiments”.
With `Cc1c(O)c(=O)ccn1C` [L1, 3-hydroxy-1,2-dimethyl-4(1H)-pyridone], the SNAP-25 levels entry with SNAP-25 [1] is listed as “augmented”. Moreover, the “turnover of SNAP-25” value in the experiment with SNAP-25 [2] is “decreased turnover”. For the same molecule, in the experiment with ANCL iNs, the lipofuscin autofluorescence result is listed as “reduced”. In the experiment on ATP5G, the “accumulation of ATP5G” value is on record as “trend toward reduced accumulation” and the ATP5G levels entry was “diminished down to similar levels as observed in the prevention experiments”.
